Assays:
Assay type in all cases: cell-based
[1] = tested on: human dermal fibroblasts (HDFs); assay: WST-1 assay, cytotoxicity of loliolide on human dermal fibroblasts; conditions: loliolide up to 20 μg/mL, 24 hours
Description: The purification of loliolide was performed in the same manner as in Example 3, and an extract was obtained using ethyl acetate from a lyophilized culture of the Scenedesmus sp. HS4 microalgae of the present invention, and loliolide was purified through fractionation/concentration. In the case of culturing human dermal cells, human dermal fibroblasts purchased from Lonza (Basel, Switzerland) were cultured in a 5% CO2 cell incubator at 37° C. using a medium in which 10% fetal bovine serum (FBS, 51480, Biowest, France) was further added to Dulbecco's modified Eagle's medium (DMEM medium, L0103-500, Biowest, France).
First, whether loliolide has cytotoxicity against human dermal fibroblasts was confirmed through WST-1 assay. After dispensing the cultured human dermal fibroblasts into a 96-well plate at 4×10^3 cells/well and culturing for 24 hours, the loliolide purified from Scenedesmus sp. HS4 microalgae was treated at concentrations of 0 μg/mL, 2 μg/mL, 5 μg/mL, 10 μg/mL, and 20 μg/mL, respectively. After 24 hours have elapsed after the loliolide treatment, the solution was treated in the medium using a WST-1 assay kit (EZ-cytox cell viability kit, Itshio, Korea), the absorbance was measured at a wavelength of 450 nm with a microplate reader (iMark microplate reader, Bio-Rad, USA).

ColA1 gene = assay: qRT-PCR, expression of collagen gene in UVB-irradiated human dermal fibroblasts; conditions: 24 hours, UVB-only control 30%
Description: (§1) First, human dermal fibroblasts cultured in the same manner as in Example 6 were dispensed in a 96-well plate in an amount of 4×10^3 cells/well, and UVB was irradiated to the medium at 10 mJ/cm^2. […] Thereafter, the changes in expression levels of the ColA1 gene and the MMP1 gene were measured through quantitative real time-PCR (qRT-PCR). During this process, SYBR green I (Invitrogen), which is a fluorescent material, was used to examine the amount of the DNA product amplified by PCR in real time. Specifically, 0.2 μM of the primers prepared with the sequences shown in Table 3 below were added to a PCR tube, and mixed with 50 mM KCl, 20 mM Tris/HCl (pH 8.4), 0.8 mM dNTP, 0.5 U DNA polymerase (Extaq DNA polymerase), 3 mM MgCl2 and 1×SYBR Green I so as to prepare a reaction solution. Then, PCR was performed using a PCR device (Linegene K, BioER, China)(PCR conditions: primary denaturation for 3 minutes, denaturation at 94° C. for 30 seconds, annealing at 58° C. for 30 seconds, and polymerization at 72° C. for 30 seconds, a total of 40 cycles), and the fluorescence intensity was measured for each cycle.

MMP1 gene = assay: qRT-PCR, expression of collagenase gene in UVB-irradiated human dermal fibroblasts; conditions: 24 hours, UVB-only control 2.4-fold increase
Description: as §1

[2] = tested on: human dermal fibroblasts irradiated with UVB; assay: WST-1 assay, cell viability recovery in UVB-irradiated human dermal fibroblasts; conditions: loliolide 2 μg/mL for 6 hours, then UVB 10 mJ/cm^2, 24 hours
Description: Human dermal fibroblasts cultured in the same manner as in Example 6 were dispensed in a 96-well plate by 4×10^3 cells/well, and loliolide was treated at concentrations of 2 μg/mL, 5 μg/mL, 10 μg/mL, and 20 μg/mL for 6 hours. Then, the medium was irradiated with UVB at 10 mJ/cm^2 and cultured further for 24 hours, and cell viability was measured by performing a WST-1 assay in the same manner as in Example 6.

[3] = UVB 10 mJ/cm^2, then loliolide 5 μg/mL
[4] = UVB 10 mJ/cm^2, then loliolide 10 μg/mL

CC1(C)C[C@H](O)C[C@@]2(C)OC(=O)C=C12 [loliolide]
toxicity to human dermal fibroblasts (relative viability vs untreated control) [1]: not toxic
expression level of ColA1 gene, based on cells without any treatment (ColA1 gene; [3]): 55%
expression level of ColA1 gene, based on cells without any treatment (ColA1 gene; [4]): 65%
expression level of MMP1 gene (MMP1 gene; [3]): 25%
expression level of MMP1 gene (MMP1 gene; [4]): 46%
cell viability compared to the UVB control group [2]: significantly increased

Source: patent US12329850B2, “Microalgae having high loliolide productivity” (KOREA RESEARCH INSTITUTE OF BIOSCIENCE AND BIOTECHNOLOGY, priority 2019, dated 2025)
